Measurements as given in US20090038025A1, “Selection system for maize transformation” (BASF Plant Science GmbH, priority 2005, published 2009).

Tested on: corn immature embryos
Experiment: Immature embryo germination inhibition bioassay (kill curves)
Format: cell-based, Zea mays
Settings: immature embryos 2 mm on germination medium, 27° C. in light; shoot and primary root length 7 days after dissection
Protocol: In order to establish effective concentrations of D-Serine and D-Alanine on inhibiting growth of tissue cultured corn cells, a bioassay system using immature embryos was applied. Immature embryos 2 mm in length were dissected onto germination medium with the selection agents, and incubated at 27° C. in light. The lengths of the shoot and primary root of a germinated seedling were measured 7 days after embryo dissection (FIGS. 1A and 1B).

| Structure (SMILES) | concentration above which significant/pronounced growth inhibition occurs |
| --- | --- |
| C[C@@H](N)C(=O)O [D-Alanine] | higher than 2 mM |
| N[C@H](CO)C(=O)O [D-Serine] | higher than 9 mM |
